Assays:
[1] = target: Recombinant Btk (Homo sapiens, UniProt Q06187); test: Kinase activity (BTK) inhibition assay, TR-FRET; assay type: biochemical; conditions: read-out: BTK kinase inhibitory activity grade (A/B/C)
Description: Kinase Activity (BTK) Inhibition Assay
The inhibitory effects of the compounds disclosed herein on BTK kinase activity were tested in an assay based on a time resolved fluorescence resonance energy transfer (TR-FRET) method. Recombinant Btk was pre-incubated with the compound disclosed herein in an assay buffer containing 50 mM. Tris pH 7.4, 10 mM MgCl2, 2 mM MnCl2, 0.1 mM EDTA, 1 mM DTT, 20 nM SEB, 0.1% BSA, 0.005% tween-20 at room temperature for 1 hour. The reaction was initiated by the addition of ATP (at the ATP Km concentration) and the peptide substrate (Biotin-[…]-NH2). After incubation for 1 hour at room temperature, an equal volume of stop solution containing 50 mM HEPES pH 7.0, 800 mM KF, 20 mM EDTA, 0.1% BSA, p-Tyr66 antibody linked with Eu cryptate and streptavidin-labeled XL665 was added to stop the reaction. The plate was incubated for an additional hour at room temperature and then the TR-FRET signal was read on a BMG PHERAstar FS instrument (ex337 nm, em 620 nm/665 nm). Based on the ratio of the signal of fluorescence at […] to 665 nm, the enzyme activity was calculated with an increased compound concentration. IC50 of each compound was obtained by fitting the data to the four-parameter equation of Graphpad Prism software.

[2] = target: LCK (Homo sapiens, UniProt P06239); test: In vitro kinase selectivity assay, LCK (Z'-Lyte); assay type: biochemical; conditions: read-out: LCK kinase inhibitory activity grade
Description: (§1) The assay platform for EGFR and ITK kinase activities was established using time-resolved fluorescence resonance energy transfer-based method; the assay platform for LCK, SRC and LYN kinase activities was established using Z′-Lyte method; and the assay platform for TEC and JAK3 kinase activities was established using Lance Ultra method. The inhibitory effects of the compounds disclosed herein on different kinase activities were tested separately for each compound at 11 concentrations. The IC50 value of each compound was calculated using Graphpad Prism software.

[3] = target: SRC (Homo sapiens, UniProt P12931); test: In vitro kinase selectivity assay, SRC (Z'-Lyte); assay type: biochemical; conditions: read-out: SRC kinase inhibitory activity grade
Description: as §1

[4] = target: LYN (Homo sapiens, UniProt P07948); test: In vitro kinase selectivity assay, LYN (Z'-Lyte); assay type: biochemical; conditions: read-out: LYN kinase inhibitory activity grade
Description: as §1

[5] = target: EGFR (Homo sapiens, UniProt P00533); test: In vitro kinase selectivity assay, EGFR (TR-FRET); assay type: biochemical; conditions: read-out: EGFR kinase inhibitory activity grade
Description: as §1

[6] = target: T1, ITK (Homo sapiens, UniProt Q08881); test: In vitro kinase selectivity assay, ITK (TR-FRET); assay type: biochemical; conditions: read-out: ITK kinase inhibitory activity grade
T1 sequence (Q08881 1-620): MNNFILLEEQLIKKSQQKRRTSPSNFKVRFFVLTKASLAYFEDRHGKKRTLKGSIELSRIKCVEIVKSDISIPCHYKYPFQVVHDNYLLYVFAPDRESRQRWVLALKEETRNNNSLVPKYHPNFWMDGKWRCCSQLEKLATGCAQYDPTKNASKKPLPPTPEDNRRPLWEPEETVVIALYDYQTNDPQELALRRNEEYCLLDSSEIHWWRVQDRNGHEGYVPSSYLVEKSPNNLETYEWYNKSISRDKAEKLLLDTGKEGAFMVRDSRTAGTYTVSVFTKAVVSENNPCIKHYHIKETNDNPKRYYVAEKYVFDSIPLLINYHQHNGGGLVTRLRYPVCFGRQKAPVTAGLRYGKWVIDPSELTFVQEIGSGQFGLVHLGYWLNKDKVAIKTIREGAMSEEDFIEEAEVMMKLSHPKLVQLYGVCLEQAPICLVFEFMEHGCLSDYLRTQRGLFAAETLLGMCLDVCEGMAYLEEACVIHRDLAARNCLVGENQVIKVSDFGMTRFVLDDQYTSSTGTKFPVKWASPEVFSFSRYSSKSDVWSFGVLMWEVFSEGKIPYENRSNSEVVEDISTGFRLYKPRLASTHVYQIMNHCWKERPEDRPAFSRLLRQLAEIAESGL
Description: as §1

[7] = target: T2, TEC (Homo sapiens, UniProt P42680); test: In vitro kinase selectivity assay, TEC (Lance Ultra); assay type: biochemical; conditions: read-out: TEC kinase inhibitory activity grade
T2 sequence (P42680 1-631): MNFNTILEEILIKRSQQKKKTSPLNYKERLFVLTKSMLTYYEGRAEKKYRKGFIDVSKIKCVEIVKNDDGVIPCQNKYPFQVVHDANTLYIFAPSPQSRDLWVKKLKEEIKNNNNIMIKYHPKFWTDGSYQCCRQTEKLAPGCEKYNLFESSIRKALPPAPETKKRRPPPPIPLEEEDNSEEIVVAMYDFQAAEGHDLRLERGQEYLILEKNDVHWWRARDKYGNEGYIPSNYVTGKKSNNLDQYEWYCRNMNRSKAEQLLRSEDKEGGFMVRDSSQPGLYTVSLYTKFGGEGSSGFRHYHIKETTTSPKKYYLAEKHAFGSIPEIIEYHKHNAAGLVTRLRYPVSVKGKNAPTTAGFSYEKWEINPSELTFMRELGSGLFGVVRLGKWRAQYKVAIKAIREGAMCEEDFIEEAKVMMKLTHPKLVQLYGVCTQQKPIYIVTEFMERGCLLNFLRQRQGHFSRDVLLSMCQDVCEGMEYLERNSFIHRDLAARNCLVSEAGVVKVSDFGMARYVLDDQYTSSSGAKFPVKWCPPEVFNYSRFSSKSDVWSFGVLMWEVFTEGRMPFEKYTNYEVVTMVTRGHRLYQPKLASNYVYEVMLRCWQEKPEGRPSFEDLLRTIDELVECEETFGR
Description: as §1

[8] = test system: diffuse large B-cell lymphoma cell line TMD-8; test: Pharmacodynamic assay, TMD-8 xenograft in NOD.SCID mice; assay type: in vivo; conditions: p.o. daily for 21 days
Description: Severe immunodeficiency NOD.SCID mice were purchased from Beijing Vital River Laboratory Animal Technology Co., Ltd., and were housed in SPF grade animal room. After TMD-8 cells were cultured to the sufficient amount, the cells were collected by centrifugation and washed twice with PBS. Finally, the cells were resuspended in serum-free RPMI 1640 medium plus Matrigel (1:1 v/v). 0.2 ml of cell suspension was injected subcutaneously on the right flank of each mouse using 1 ml syringe and 25 G syringe needle. The tumor size was measured with a caliper after about one week post injection. The tumor volume was calculated according to the following formula: tumor volume=(length×width^2)/2. When the tumor volume reached about 100-200 mm^3, the mice were grouped and p.o. administered daily for 21 days.

Sequence of EGFR (P00533 25-1210): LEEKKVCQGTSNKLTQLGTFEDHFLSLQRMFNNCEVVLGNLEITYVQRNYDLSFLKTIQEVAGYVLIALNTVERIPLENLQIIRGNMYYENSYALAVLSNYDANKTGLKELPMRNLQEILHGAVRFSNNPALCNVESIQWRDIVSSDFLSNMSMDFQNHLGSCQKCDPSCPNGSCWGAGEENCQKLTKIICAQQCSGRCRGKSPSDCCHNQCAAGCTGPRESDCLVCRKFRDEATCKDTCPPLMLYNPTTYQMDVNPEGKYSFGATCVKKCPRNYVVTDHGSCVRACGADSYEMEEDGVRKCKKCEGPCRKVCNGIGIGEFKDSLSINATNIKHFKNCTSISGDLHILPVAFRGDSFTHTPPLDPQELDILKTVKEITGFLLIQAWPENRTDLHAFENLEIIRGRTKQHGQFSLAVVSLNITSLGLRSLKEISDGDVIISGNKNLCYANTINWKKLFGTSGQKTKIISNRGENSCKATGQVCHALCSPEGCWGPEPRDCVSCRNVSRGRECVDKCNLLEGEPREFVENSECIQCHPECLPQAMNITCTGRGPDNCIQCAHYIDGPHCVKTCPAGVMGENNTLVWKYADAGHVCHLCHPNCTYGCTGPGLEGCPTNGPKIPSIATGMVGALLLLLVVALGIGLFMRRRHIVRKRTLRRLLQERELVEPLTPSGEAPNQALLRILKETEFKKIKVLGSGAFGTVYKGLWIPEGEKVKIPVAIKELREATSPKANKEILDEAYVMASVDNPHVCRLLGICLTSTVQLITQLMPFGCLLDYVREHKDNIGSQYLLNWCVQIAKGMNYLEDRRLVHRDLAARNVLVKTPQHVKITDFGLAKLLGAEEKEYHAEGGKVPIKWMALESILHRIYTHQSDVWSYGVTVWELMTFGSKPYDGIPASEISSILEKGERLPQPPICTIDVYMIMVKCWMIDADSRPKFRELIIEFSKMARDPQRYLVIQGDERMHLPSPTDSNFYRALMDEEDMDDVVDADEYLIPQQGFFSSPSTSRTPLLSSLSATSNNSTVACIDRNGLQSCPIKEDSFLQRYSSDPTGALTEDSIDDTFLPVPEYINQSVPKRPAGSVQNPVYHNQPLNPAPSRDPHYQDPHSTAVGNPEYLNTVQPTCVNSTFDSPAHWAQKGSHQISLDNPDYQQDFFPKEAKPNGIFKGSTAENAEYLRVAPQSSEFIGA
Sequence of Recombinant Btk (Q06187 whole entry): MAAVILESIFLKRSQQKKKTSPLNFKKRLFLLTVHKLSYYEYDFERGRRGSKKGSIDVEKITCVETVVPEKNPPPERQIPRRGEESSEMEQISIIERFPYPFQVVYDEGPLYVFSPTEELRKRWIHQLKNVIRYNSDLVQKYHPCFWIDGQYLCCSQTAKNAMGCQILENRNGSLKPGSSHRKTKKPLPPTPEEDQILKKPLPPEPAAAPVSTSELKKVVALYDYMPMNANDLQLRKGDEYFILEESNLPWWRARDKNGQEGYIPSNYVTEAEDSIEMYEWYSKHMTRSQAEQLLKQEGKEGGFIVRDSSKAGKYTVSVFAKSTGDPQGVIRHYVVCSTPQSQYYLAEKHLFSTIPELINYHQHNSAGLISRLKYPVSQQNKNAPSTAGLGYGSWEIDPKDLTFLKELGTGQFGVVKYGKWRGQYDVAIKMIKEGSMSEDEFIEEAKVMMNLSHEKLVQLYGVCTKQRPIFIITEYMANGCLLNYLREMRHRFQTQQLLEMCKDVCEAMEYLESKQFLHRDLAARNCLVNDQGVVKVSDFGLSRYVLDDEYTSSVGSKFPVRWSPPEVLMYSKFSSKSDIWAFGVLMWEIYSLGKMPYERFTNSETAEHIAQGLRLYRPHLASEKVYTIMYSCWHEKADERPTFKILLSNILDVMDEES
Sequence of LCK (P06239 whole entry, species assumed): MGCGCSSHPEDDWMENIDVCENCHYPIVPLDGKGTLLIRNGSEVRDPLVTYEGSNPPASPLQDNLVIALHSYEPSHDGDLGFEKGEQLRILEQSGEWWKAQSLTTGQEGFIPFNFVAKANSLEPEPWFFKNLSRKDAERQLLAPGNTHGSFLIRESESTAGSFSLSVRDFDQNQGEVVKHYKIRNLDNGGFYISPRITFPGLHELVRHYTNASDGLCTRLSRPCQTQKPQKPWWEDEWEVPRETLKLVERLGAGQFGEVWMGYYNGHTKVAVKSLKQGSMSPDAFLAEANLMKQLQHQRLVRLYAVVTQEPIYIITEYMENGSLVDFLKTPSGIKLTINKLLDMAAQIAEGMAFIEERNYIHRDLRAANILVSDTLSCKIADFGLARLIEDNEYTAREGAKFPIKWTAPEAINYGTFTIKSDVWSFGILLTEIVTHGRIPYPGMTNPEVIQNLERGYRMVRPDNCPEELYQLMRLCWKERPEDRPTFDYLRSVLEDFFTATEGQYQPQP
Sequence of SRC (P12931 whole entry, species assumed): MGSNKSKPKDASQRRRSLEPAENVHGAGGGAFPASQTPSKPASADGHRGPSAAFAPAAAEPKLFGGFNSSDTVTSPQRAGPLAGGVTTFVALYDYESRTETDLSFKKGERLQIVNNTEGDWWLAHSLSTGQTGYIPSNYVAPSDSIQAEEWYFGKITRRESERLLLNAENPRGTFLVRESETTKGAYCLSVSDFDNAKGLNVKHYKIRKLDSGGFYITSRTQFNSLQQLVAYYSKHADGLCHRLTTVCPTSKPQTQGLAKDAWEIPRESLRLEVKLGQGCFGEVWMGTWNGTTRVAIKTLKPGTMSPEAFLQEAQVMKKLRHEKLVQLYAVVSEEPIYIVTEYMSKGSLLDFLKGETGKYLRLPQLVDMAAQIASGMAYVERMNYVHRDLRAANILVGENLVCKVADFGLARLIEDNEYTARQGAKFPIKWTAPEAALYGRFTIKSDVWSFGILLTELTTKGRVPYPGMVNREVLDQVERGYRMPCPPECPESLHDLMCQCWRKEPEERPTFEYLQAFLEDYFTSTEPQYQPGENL
Sequence of LYN (P07948 whole entry, species assumed): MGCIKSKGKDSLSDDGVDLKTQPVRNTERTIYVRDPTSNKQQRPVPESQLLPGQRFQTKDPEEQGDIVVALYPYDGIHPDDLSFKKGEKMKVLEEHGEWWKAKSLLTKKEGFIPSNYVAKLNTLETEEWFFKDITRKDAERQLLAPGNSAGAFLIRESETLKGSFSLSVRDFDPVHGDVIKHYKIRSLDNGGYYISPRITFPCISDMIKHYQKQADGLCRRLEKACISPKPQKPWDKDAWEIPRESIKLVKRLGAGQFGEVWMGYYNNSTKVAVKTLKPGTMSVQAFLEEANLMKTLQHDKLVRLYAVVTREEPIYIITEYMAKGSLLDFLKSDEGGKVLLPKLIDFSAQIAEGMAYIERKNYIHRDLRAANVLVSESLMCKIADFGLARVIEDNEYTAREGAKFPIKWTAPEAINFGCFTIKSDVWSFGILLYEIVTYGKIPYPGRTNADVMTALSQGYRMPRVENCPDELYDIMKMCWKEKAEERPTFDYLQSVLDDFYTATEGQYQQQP

CC#CC(=O)N1C[C@H](n2nc(-c3ccc(Oc4ccc(Cl)cn4)cc3)c(C(N)=O)c2N)CCC12CC2 [WS-416, (R)-5-amino-1-(4-(2-butynoyl)-4-azaspiro[2.5]oct-6-yl)-3-(4-((5-chloropyridin-2-yl)oxy)phenyl)-1H-pyrazole-4-carboxamide]
IC50 [1]: < 100 nM | IC50 [2]: > 1000 nM | IC50 [3]: > 1000 nM | IC50 [4]: > 1000 nM | IC50 [5]: > 1000 nM | IC50 [6]: > 1000 nM | IC50 [7]: < 100 nM | growth of TMD-8 tumor in vivo [8]: significantly inhibited the growth

Reference: patent US10882843B2, “5-aminopyrazole carboxamide derivative as BTK inhibitor and preparation method and pharmaceutical composition thereof” (SUZHOU SINOVENT PHARMACEUTICALS CO., LTD., priority 2016, dated 2021)
